Experimental data published in article PMC10226132, “First-in-Class Selective Inhibitors of the Lysine Acetyltransferase KAT8” (Journal of Medicinal Chemistry, 2023).

Legend:
[1] = system: A549 cells; assay: MTT cell proliferation assay, A549; format: cell-based, human; settings: 72 h treatment, MTT
From the text: (§1) Human commercially available AML U937, breast cancer MCF7, lung adenocarcinoma NCI-H460, H1299 and A-549, glioblastoma U251, B lymphocyte AHH1 cell lines were maintained in compete 10% foetal bovine serum (FBS,) RPMI 1640 (Euroclone, Milan, IT) medium. Human commercially available colon cancer HCT116 and HT29 lines and cervix adenocarcinoma HeLa cells were maintained in compete 10% FBS Dulbecco’s Modified Eagle Medium (DMEM) high glucose medium (Euroclone). L-Glutamine, FBS, and penicillin streptomycin mixture added to medium were obtained from Euroclone. All cell lines were cultured at 37 °C in a humidified atmosphere of 5% CO2:95% air and were tested for mycoplasma contamination routinely by RT-PCR.
(§2) For analysis of cell proliferation, cells were plated in sextuplicate on 96-well plates in complete media. After 24 h, cells were exposed to different drugs for 72 h. The inhibitory effect of different drugs was assessed by MTT (Sigma, St. Louis, MO, USA) colorimetric assays as previously reported.[67] Aqueous DMSO (0.5% v/v) was used as a control (untreated). The results are reported as “viability of drug-treated cells/viability of untreated cells” × 100 and represent the average ±SD of three independent experiments. IC50 values were using fitted by nonlinear regression using GraphPad Prism 8.0.

[2] = system: normal human lung fibroblasts (NHLF); assay: Proliferation of normal human lung fibroblasts (NHLF); format: cell-based; settings: 25, 50, 100, 200 μM, 72 h
Protocol: as §2

[3] = system: human intestinal epithelial cells (InEpC); assay: Proliferation of human intestinal epithelial cells (InEpC); format: cell-based; settings: 25, 50, 100, 200 μM, 72 h
Protocol: as §2

[4] = system: U937 cells; assay: MTT cell proliferation assay, U937; format: cell-based, human; settings: 72 h treatment, MTT
From the text: as §1, §2

[5] = target: T1, KAT8 (Homo sapiens, UniProt Q9H7Z6); assay: Radioactive KAT8 inhibition assay; format: biochemical; settings: read-out: IC50 KAT8 (5 nM); enzyme 5 nM; 2-fold serial dilution from 200 μM; NI = no inhibition at 200 μM; mean ± SD of three independent experiments
T1 construct: using the previously purified KAT8 (173–458, 5 nM); 6xHis tag with TEV protease cleavage site (N, cleaved yes); made in house; host or cells: E. coli BL21(DE3)
T1 sequence (Q9H7Z6 173-458): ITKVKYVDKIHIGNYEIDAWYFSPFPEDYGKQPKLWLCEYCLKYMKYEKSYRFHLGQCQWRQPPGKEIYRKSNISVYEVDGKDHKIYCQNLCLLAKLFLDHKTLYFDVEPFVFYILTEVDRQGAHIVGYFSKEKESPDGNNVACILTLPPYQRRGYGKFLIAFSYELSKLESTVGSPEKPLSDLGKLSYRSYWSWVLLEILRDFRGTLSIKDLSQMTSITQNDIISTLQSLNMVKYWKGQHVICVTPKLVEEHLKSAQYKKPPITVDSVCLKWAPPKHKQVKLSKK
Protocol: Purified KAT8 was incubated with the relevant inhibitor (1% DMSO final) in a 2-fold serial dilution starting at 200 μM for 20 min at rt. Then, [^3H]Ac-CoA and biotinylated peptide were added to a total assay volume of 50 μL and the reaction mixture was incubated at rt for 4 h. The reaction was stopped, and the mixture was transferred to a 96-well streptavidin scintillant coated FlashPlate (Perkin Elmer) and incubated for 60 min at rt. The FlashPlate was washed with 0.1% Tween-20, and the liquid scintillation counting (MicroBeta Microplate Counter, Perkin Elmer) was employed to measure the radioactive signal. Experiments were performed in biological triplicates. Signal reduction compared to control was plotted (as inhibition percentage) as a function of compound concentration and fitted by nonlinear regression (GraphPad Prism 8.0) finally yielding the IC50 values.

[6] = system: HCT116 cells; assay: MTT cell proliferation assay, HCT116; format: cell-based, human; settings: 72 h treatment, MTT
From the text: as §1, §2

[7] = target: T2, KAT3B (Homo sapiens, UniProt Q09472); assay: HotSpot KAT assay, KAT3B; format: biochemical; settings: read-out: IC50 KAT3B (1 nM); enzyme 1 nM; NI = no inhibition at 200 μM; mean ± SD of three independent experiments
T2 construct: KAT3B (aa 1284–1672, 1 nM); purchased Reaction Biology Corporation
T2 sequence (Q09472 1284-1672): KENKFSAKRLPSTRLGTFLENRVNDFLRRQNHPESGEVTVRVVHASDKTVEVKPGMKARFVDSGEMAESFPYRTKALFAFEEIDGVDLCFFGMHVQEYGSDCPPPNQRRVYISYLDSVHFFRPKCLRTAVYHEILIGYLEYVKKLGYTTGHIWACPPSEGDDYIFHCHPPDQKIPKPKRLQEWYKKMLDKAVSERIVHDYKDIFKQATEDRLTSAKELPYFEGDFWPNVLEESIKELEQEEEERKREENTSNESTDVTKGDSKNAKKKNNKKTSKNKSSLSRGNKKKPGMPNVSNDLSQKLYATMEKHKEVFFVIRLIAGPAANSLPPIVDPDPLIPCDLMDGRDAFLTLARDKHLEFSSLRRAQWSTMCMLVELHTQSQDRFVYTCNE
Protocol: The effects of the compounds on other KATs were determined using the HotSpot KAT assay (Reaction Biology Corporation, Malvern, PA, USA) according to the supplier’s procedure. […] Histone peptide acetylation was assessed by liquid scintillation counting using a Tri-Carb 2800TR Liquid Scintillation Analyzer (Perkin Elmer). Experiments were performed in biological triplicates. Signal reduction compared to control was plotted (as inhibition percentage) as a function of compound concentration. In cases in which an IC50 was calculated, the values were fitted by nonlinear regression (GraphPad Prism 8.0).

[8] = system: AHH-1 cells; assay: Proliferation of noncancer B lymphocyte AHH-1 cells; format: cell-based, human; settings: 72 h
From the text: as §1, §2

[9] = system: H1299 cells; assay: MTT cell proliferation assay, H1299; format: cell-based, human; settings: 72 h treatment, MTT
From the text: as §1, §2

[10] = target: T3, KAT2B (Homo sapiens, UniProt Q92831); assay: HotSpot KAT assay, KAT2B; format: biochemical; settings: enzyme 25 nM; NI = no inhibition at 200 μM; mean ± SD of three independent experiments
T3 construct: KAT2B (aa 492–658, 25 nM); purchased Reaction Biology Corporation
T3 sequence (Q92831 492-658): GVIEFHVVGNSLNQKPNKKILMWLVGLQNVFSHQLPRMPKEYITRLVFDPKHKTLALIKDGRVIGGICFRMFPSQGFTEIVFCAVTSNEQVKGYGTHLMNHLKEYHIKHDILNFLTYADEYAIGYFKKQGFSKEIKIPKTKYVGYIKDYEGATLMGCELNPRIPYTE
Protocol: The effects of the compounds on other KATs were determined using the HotSpot KAT assay (Reaction Biology Corporation, Malvern, PA, USA) according to the supplier’s procedure. The recombinant catalytic domains of human KAT2A (aa 323–837, 15 nM), KAT2B (aa 492–658, 25 nM), KAT3B (aa 1284–1672, 1 nM), KAT6A (aa 488–778, 10 nM), KAT6B (aa 657–1069, 10 nM), and full length human KAT5 (25 nM) and KAT7 (25 nM) were used. Each enzyme was incubated with the relevant histone peptide [H3 peptide for KAT2A, KAT2B, KAT3B, KAT6A, and KAT7 (2.5–5 μM, depending on the KAT isoform); H2A peptide for KAT5 (1.25 μM); H4 peptide for KAT6B (2.5 μM)] as a substrate and radio-isotope-labeled [^3H]Acetyl-CoA (0.2–1.5 μM, depending on the KAT isoform) as an acetyl donor in the assay buffer [50 mM Tris–HCl (pH 8.0), 50 mM NaCl, 0.1 mM EDTA, 1 mM DTT, 0.1 mM PMSF, 1% DMSO] for 1 h at 30 °C in the presence or absence of various compounds (1% DMSO final) titrated in a 2-fold serial dilution starting at 200 μM. Histone peptide acetylation was assessed by liquid scintillation counting using a Tri-Carb 2800TR Liquid Scintillation Analyzer (Perkin Elmer). Experiments were performed in biological triplicates. Signal reduction compared to control was plotted (as inhibition percentage) as a function of compound concentration. In cases in which an IC50 was calculated, the values were fitted by nonlinear regression (GraphPad Prism 8.0).

[11] = system: U937 cells; set-up: method as in PMID 28202522; settings: cited from earlier work

CC1=NN(c2ccc(C(=O)NCc3ccccc3)cc2)C(=O)/C1=C\c1ccc[nH]1 [Compound 39, (Z)-4-(4-((1H-Pyrrol-2-yl)methylene)-3-methyl-5-oxo-4,5-dihydro-1H-pyrazol-1-yl)-N-benzylbenzamide]
IC50 A549, 72 h [1]: No inhibition at 100 µM | effect on proliferation of NHLF [2]: did not significantly affect the proliferation | effect on proliferation of InEpC [3]: did not significantly affect the proliferation | IC50 U937, 72 h [4]: No inhibition at 100 µM | IC50 [5]: > 200 µM | IC50 HCT116, 72 h [6]: No inhibition at 100 µM | IC50 [7]: > 200 µM | effect on proliferation of AHH-1 cells ([8]; 25, 50, 100, 200 μM): did not significantly affect the proliferation | IC50 ([8]; Homo sapiens, AHH-1, NI = no inhibition at 200 µM): > 200 µM | IC50 H1299, 72 h [9]: No inhibition at 100 µM | IC50 [10]: > 200 µM

CCCCCCCc1ccc(CCc2cccc(O)c2C(=O)O)cc1 [III (MG149), reference compound]
antiproliferative activity in U937 and other AML cell lines [11]: exerted antiproliferative activity | IC50 [5]: 20.3 ± 1.3 µM | IC50 [7]: 22.3 ± 1.1 µM | IC50 [10]: > 200 µM
